According to publication PMC7834599 (Bioorganic & Medicinal Chemistry Letters, 2020):

Legend:
AIM2 inflammasome = molecular target: T1, AIM2 inflammasome (Homo sapiens, UniProt O14862); test: Poly; type: cell-based; conditions: THP-1 cells, Poly (dA:dT)
T1 sequence (O14862 1-343): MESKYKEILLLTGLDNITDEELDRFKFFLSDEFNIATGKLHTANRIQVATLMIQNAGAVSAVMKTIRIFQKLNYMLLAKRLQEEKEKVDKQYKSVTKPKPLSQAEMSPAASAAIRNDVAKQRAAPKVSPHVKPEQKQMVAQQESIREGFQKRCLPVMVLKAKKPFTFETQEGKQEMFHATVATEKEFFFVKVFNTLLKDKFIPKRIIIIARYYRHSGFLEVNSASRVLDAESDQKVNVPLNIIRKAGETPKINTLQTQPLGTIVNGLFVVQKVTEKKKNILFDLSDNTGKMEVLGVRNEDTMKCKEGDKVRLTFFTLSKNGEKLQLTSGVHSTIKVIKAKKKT

CYP2C8 = molecular target: T2, CYP2C8 (Homo sapiens, UniProt P10632); test: CYP inhibition in human liver microsomes; type: in vitro ADME
T2 sequence (P10632 1-490): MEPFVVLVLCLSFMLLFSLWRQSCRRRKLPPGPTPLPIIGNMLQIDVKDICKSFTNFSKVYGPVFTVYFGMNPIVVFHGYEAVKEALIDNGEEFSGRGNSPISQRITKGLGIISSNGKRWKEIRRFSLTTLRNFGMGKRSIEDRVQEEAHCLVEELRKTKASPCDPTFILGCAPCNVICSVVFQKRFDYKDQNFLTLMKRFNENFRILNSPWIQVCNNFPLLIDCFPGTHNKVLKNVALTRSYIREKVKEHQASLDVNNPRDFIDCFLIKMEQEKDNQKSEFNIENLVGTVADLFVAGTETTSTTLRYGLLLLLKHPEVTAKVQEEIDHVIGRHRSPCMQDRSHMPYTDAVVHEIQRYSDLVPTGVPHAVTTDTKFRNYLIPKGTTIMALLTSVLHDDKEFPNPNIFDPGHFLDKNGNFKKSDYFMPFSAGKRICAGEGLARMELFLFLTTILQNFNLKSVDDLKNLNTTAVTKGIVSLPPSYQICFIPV

ASC = ASC oligomerization assay in THP-1 cells; type: cell-based, Human; conditions: LPS-ATP NLRP3 activated THP-1 cells, western blot
CYP2C9 = CYP2C9 (Homo sapiens, UniProt P11712); test: CYP inhibition in human liver microsomes; type: in vitro ADME
Sequence of CYP2C9 (P11712 whole entry): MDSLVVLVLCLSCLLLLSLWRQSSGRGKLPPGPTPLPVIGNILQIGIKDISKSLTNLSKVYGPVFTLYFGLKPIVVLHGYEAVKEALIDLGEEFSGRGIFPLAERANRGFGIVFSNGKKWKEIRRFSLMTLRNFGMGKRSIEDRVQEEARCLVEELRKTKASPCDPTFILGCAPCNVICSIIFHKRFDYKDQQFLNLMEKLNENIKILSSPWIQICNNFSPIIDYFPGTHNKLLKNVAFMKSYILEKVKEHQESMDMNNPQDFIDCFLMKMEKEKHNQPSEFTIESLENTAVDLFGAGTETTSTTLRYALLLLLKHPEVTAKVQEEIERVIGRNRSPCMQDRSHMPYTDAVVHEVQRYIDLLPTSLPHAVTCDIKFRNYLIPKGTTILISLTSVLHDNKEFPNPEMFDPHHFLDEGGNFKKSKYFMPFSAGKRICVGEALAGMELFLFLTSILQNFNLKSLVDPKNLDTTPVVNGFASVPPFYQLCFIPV

TNF-α = TNF-α release in LPS-ATP treated THP-1 cells; type: cell-based, Human
NLRP3 inflammasome = NLRP3 inflammasome (Homo sapiens, UniProt Q96P20); test: IL-1β release assay, NLRP3 inflammasome activation in THP-1 cells; type: cell-based
Sequence of NLRP3 inflammasome (Q96P20 whole entry): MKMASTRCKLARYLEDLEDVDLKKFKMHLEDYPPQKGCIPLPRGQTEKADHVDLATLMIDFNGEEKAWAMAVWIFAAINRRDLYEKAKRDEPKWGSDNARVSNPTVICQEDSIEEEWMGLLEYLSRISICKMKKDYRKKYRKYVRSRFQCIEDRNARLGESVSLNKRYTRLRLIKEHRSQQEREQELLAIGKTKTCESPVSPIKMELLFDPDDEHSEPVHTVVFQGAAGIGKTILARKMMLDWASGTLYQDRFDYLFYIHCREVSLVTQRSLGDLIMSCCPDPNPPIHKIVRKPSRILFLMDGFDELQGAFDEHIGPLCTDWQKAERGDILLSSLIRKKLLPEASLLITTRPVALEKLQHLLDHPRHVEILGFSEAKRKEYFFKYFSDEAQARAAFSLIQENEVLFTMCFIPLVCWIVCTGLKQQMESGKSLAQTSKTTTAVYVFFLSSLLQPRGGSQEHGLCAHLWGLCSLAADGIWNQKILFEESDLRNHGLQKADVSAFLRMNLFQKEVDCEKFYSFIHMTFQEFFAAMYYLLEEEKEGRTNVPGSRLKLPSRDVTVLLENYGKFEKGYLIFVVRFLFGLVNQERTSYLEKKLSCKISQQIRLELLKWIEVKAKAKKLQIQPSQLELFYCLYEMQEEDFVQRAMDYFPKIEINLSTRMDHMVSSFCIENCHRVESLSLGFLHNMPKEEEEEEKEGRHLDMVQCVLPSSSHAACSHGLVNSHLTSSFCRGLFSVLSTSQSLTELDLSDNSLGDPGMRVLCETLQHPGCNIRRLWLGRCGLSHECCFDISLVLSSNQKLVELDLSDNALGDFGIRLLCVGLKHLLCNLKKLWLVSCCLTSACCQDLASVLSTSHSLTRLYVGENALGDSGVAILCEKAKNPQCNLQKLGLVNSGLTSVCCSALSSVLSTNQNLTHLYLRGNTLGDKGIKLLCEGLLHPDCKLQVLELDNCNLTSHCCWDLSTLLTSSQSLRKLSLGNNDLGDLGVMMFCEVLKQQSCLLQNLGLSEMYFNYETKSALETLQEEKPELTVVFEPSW

Row | Compound | inhibition of secreted IL-1β in AIM2 inflammasome activation (in words) (AIM2 inflammasome) | CYP2C8 inhibition (in words) (CYP2C8) | ASC oligomerization (in words) (ASC) | CYP2C9 inhibition (in words) (CYP2C9) | IC50 (TNF-α; Homo sapiens, THP-1, read-out: TNF-α IC50) [µM] | inhibition of secreted TNF-α (in words) (TNF-α; THP-1 cells, LPS-ATP, up to high concentration) | IC50 (NLRP3 inflammasome) [µM] | inhibition at 1 µM (NLRP3 inflammasome; THP-1, read-out: inhibition of secreted IL-1β) [%]
1 | O=C(Nc1c2c(cc3c1CCC3)CCC2)NS(=O)(=O)/C=C/c1nccs1 [Compound 7, (E)-N-((1,2,3,5,6,7-hexahydro-s-indacen-4-yl)carbamoyl)-2-(thiazol-2-yl)ethene-1-sulfonamide] | no effect | inhibit | blocked the oligomerisation of ASC | inhibit | > 10 | not affected | – | –
2 | O=C(NS(=O)(=O)/C=C/c1nccs1)c1c2c(cc3c1OCC3)OCC2 [Compound 20] | – | – | – | – | – | – | > 1 | < 50
